Assay results reported in PMC11879280, “Antimicrobial activity of peptoids against Metallo-β-lactamase-producing Klebsiella pneumoniae, Acinetobacter baumannii, Pseudomonas aeruginosa, and other WHO priority pathogens, including Candida auris” (Journal of Applied Microbiology, 2025).

What was measured:
[1] = test system: A. baumannii 005; settings: A. baumannii 005; CAMHB, 37°C, 16–20 h
Method: (§1) Briefly, bacteria were suspended in cation-adjusted Mueller–Hinton broth (CAMHB; Oxoid, UK) for antibiotics, or MHB (Oxoid, UK) for peptidomimetics to obtain 5 × 10^5 colony forming unit (CFU) ml^−1. […] Positive controls contained only microbes, and blanks contained only media. Microbial suspensions (100 µl) were added to wells, plates wrapped, and incubated at 37°C, 120 rpm for 16–20 h. After incubation, suspensions were removed, log10 diluted, and plated on Trypticase Soya Agar with phosphatidylcholine and Tween 80 to determine minimum bactericidal or fungicidal concentration (MBC or MFC). […] Geometric mean MIC of the peptoids were calculated to evaluate the broad overview of antimicrobial activity across the pathogens.

[2] = test system: A. baumannii 008; settings: A. baumannii 008; CAMHB, 37°C, 16–20 h
Method: as §1

[3] = test system: E. coli 005; settings: E. coli 005; CAMHB, 37°C, 16–20 h
Method: as §1

[4] = test system: P. aeruginosa AR-1270; settings: P. aeruginosa AR-1270; CAMHB, 37°C, 16–20 h
Method: as §1

[5] = test system: A. baumannii 006; settings: A. baumannii 006; CAMHB, 37°C, 16–20 h
Method: as §1

[6] = test system: En. cloacae 001; settings: En. cloacae 001; CAMHB, 37°C, 16–20 h
Method: as §1

[7] = test system: En. cloacae 005; settings: En. cloacae 005; CAMHB, 37°C, 16–20 h
Method: as §1

[8] = test system: A. baumannii 007; settings: A. baumannii 007; CAMHB, 37°C, 16–20 h
Method: as §1

[9] = test system: P. aeruginosa 216; settings: P. aeruginosa 216; CAMHB, 37°C, 16–20 h
Method: as §1

[10] = test system: A. baumannii ATCC 19 606; settings: A. baumannii ATCC 19 606; CAMHB, 37°C, 16–20 h
Method: as §1

[11] = test system: E. coli 0010; settings: E. coli 0010; CAMHB, 37°C, 16–20 h
Method: as §1

[12] = test system: K. pneumoniae JIE2709; settings: K. pneumoniae JIE2709; CAMHB, 37°C, 16–20 h
Method: as §1

[13] = test system: K. pneumoniae JIE4212; settings: K. pneumoniae JIE4212; CAMHB, 37°C, 16–20 h
Method: as §1

[14] = test system: K. pneumoniae JIE2713; settings: K. pneumoniae JIE2713; CAMHB, 37°C, 16–20 h
Method: as §1

[15] = test system: P. aeruginosa 33; settings: P. aeruginosa 33; CAMHB, 37°C, 16–20 h
Method: as §1

[16] = test system: E. coli 0015; settings: E. coli 0015; CAMHB, 37°C, 16–20 h
Method: as §1

[17] = test system: E. coli 0011; settings: E. coli 0011; CAMHB, 37°C, 16–20 h
Method: as §1

[18] = test system: En. cloacae 003; settings: En. cloacae 003; CAMHB, 37°C, 16–20 h
Method: as §1

[19] = test system: K. pneumoniae JIE2713; assay: Checkerboard microdilution synergy test; assay type: cell-based, Klebsiella pneumoniae; settings: for MIC: Klebsiella pneumoniae, read-out: MIC of DrugB (alone, checkerboard); for FICDrugB / MF of antibiotic (modulation factor) / MIC of DrugB + TM8: in combination with TM8
Method: (§2) Then, 10 µl of bacteria (5 × 10^6 CFU ml^−1) or C. auris (2.5 × 10^4 CFU ml^−1) were added to each well, except for the sterility control well. […] The sterility control wells contained only MHB (or RPMI in case of C. auris), and the growth control contained 110 µl of microbial inoculum with no antimicrobials. Subsequently, the plates were incubated for 18- 24 hours at 36 ± 1 °C.
(§3) The FIC for each combination interaction was calculated as follows:
(§4) Then, the summation of FIC (ƩFIC) was calculated for each antimicrobial combination as follows: ƩFIC = FICA + FICB. […] All antimicrobial synergy experiments were repeated in at least two independent runs.

[20] = test system: K. pneumoniae JIE2709; assay: Checkerboard microdilution synergy test; assay type: cell-based, Klebsiella pneumoniae; settings: for FICDrugB / MF of antibiotic (modulation factor) / MIC of DrugB + TM8: in combination with TM8; for MIC: Klebsiella pneumoniae, read-out: MIC of DrugB (alone, checkerboard)
Method: as §2, §3, §4

| Compound | MIC of antibiotics [1] [µg/mL] | MIC of antibiotics [2] [µg/mL] | MIC of antibiotics [3] [µg/mL] | MIC of antibiotics [4] [µg/mL] | MIC of antibiotics [5] [µg/mL] | MIC of antibiotics [6] [µg/mL] | MIC of antibiotics [7] [µg/mL] | MIC of antibiotics [8] [µg/mL] | MIC of antibiotics [9] [µg/mL] | MIC of antibiotics [10] [µg/mL] | MIC of antibiotics [11] [µg/mL] | MIC of antibiotics [12] [µg/mL] | MIC of antibiotics [13] [µg/mL] | MIC of antibiotics [14] [µg/mL] | MIC of antibiotics [15] [µg/mL] | MIC of antibiotics [16] [µg/mL] | MIC of antibiotics [17] [µg/mL] | MIC of antibiotics [18] [µg/mL] | FICDrugB [19] | MF of antibiotic (modulation factor) [19] | also measured |
| --- | --- | --- | --- | --- | --- | --- | --- | --- | --- | --- | --- | --- | --- | --- | --- | --- | --- | --- | --- | --- | --- |
| CC(C)(O/N=C(\C(=O)N[C@@H]1C(=O)N2C(C(=O)[O-])=C(C[n+]3ccccc3)CS[C@H]12)c1csc(N)n1)C(=O)O [Cefaz, ceftazidime, reference compound] | 512 | 512 | 0.25 | >512 | 512 | 4 | 128 | 512 | 2 | 8 | 2 | 32 | >512 | >512 | 32 | 0.5 | 4 | 4 |  |  |  |
| CNC(C)C1CCC(N)C(OC2C(N)CC(N)C(OC3OCC(C)(O)C(NC)C3O)C2O)O1 (stereo not shown) [Gen, gentamicin, reference compound] | >128 | >128 | 0.25 | >128 | >128 | 4 | 0.25 | >128 |  | 4 | 0.25 | 0.5 | 128 | >128 | >128 | 0.5 | 0.5 | 0.5 | 0.5 | 2 | MIC [19]: 1020 µg/mL; MIC of DrugB + TM8 [19]: 512 µg/mL |
| colistin sulfate [reference compound] | 0.25 | 1 | 0.25 | 1 | 0.25 | 2 | 2 | 1 | 16 | 2 | 2 | 1 | 1 | 1 | 1 | 0.25 | 2 | 1 |  |  |  |
| C[C@H]1[C@H](NC(=O)/C(=N\OC(C)(C)C(=O)O)c2csc(N)n2)C(=O)N1S(=O)(=O)O [Azt, aztreonam, reference compound] |  |  | 0.5 | >128 |  | 4 | 16 |  | 4 |  | 2 | >128 | >128 | 128 | 128 | 0.5 | 4 | 4 | 0.5 | 2 | MIC [19]: 128 µg/mL; MIC of DrugB + TM8 [19]: 64 µg/mL |
| polymyxin B [PmB, reference compound] | 0.25 | 1 | 0.25 | 2 | 0.25 | 2 | 2 | 1 | 16 | 2 | 2 | 1 | 1 | 1 | 2 | 0.25 | 2 | 1 |  |  |  |
| O=C(O)c1cn(C2CC2)c2cc(N3CCNCC3)c(F)cc2c1=O [Cip, ciprofloxacin] |  |  |  |  |  |  |  |  |  |  |  |  |  |  |  |  |  |  | 0.023 | 4 | FICDrugB [20]: 0.5; MF of antibiotic (modulation factor) [20]: 2; MIC of DrugB + TM8 [19]: 32 µg/mL |
| C[C@@H](O)[C@H]1C(=O)N2C(C(=O)O)=C(S[C@@H]3CN[C@H](C(=O)N(C)C)C3)[C@H](C)[C@H]12 [Mer, meropenem, reference compound] | >64 | 64 | 2 | >64 | 64 | 1 | 0.25 | 64 | 1 | 0.5 | 2 | 32 | 1 | >64 | 4 | 2 | 1 | 1 |  |  | MIC [20]: 32 µg/mL; FICDrugB [20]: 0.125; MF of antibiotic (modulation factor) [20]: 8; MIC of DrugB + TM8 [20]: 4 µg/mL |
| CO/N=C(\C(=O)N[C@@H]1C(=O)N2C(C(=O)O)=C(COC(C)=O)CS[C@H]12)c1csc(N)n1 [Cefot, cefotaxime, reference compound] | 512 | 512 | 0.25 |  | 512 | 4 | 128 | 512 |  | 8 | 2 | 32 | >512 | >512 |  | 0.5 | 4 | 8 | 0.5 | 2 | MIC [20]: 32 µg/mL; FICDrugB [20]: 0.5; MF of antibiotic (modulation factor) [20]: 2; MIC of DrugB + TM8 [20]: 16 µg/mL; MIC [19]: 1020 µg/mL; MIC of DrugB + TM8 [19]: 512 µg/mL |
